Results from patent publication US11807634B2, “Cyclopropyl dihydroquinoline sulfonamide compounds” (AMGEN INC., priority 2020, dated 2023).

Experiments:
[1] = target: T1, Human NaV1.7 (Homo sapiens, UniProt Q15858); experiment: Ionworks Barracuda (IWB) automated patch clamp assay; format: cell-based; conditions: human NaV1.7 currents in HEK cells, population patch clamp, state- and use-dependent voltage protocol; read-out: hNaV1.7 IWB-U IC50
T1 construct: expressed in transfected cells; host or cells: Spiking HEK cells (without Kir2.1 transfection)
T1 sequence (Q15858 whole entry): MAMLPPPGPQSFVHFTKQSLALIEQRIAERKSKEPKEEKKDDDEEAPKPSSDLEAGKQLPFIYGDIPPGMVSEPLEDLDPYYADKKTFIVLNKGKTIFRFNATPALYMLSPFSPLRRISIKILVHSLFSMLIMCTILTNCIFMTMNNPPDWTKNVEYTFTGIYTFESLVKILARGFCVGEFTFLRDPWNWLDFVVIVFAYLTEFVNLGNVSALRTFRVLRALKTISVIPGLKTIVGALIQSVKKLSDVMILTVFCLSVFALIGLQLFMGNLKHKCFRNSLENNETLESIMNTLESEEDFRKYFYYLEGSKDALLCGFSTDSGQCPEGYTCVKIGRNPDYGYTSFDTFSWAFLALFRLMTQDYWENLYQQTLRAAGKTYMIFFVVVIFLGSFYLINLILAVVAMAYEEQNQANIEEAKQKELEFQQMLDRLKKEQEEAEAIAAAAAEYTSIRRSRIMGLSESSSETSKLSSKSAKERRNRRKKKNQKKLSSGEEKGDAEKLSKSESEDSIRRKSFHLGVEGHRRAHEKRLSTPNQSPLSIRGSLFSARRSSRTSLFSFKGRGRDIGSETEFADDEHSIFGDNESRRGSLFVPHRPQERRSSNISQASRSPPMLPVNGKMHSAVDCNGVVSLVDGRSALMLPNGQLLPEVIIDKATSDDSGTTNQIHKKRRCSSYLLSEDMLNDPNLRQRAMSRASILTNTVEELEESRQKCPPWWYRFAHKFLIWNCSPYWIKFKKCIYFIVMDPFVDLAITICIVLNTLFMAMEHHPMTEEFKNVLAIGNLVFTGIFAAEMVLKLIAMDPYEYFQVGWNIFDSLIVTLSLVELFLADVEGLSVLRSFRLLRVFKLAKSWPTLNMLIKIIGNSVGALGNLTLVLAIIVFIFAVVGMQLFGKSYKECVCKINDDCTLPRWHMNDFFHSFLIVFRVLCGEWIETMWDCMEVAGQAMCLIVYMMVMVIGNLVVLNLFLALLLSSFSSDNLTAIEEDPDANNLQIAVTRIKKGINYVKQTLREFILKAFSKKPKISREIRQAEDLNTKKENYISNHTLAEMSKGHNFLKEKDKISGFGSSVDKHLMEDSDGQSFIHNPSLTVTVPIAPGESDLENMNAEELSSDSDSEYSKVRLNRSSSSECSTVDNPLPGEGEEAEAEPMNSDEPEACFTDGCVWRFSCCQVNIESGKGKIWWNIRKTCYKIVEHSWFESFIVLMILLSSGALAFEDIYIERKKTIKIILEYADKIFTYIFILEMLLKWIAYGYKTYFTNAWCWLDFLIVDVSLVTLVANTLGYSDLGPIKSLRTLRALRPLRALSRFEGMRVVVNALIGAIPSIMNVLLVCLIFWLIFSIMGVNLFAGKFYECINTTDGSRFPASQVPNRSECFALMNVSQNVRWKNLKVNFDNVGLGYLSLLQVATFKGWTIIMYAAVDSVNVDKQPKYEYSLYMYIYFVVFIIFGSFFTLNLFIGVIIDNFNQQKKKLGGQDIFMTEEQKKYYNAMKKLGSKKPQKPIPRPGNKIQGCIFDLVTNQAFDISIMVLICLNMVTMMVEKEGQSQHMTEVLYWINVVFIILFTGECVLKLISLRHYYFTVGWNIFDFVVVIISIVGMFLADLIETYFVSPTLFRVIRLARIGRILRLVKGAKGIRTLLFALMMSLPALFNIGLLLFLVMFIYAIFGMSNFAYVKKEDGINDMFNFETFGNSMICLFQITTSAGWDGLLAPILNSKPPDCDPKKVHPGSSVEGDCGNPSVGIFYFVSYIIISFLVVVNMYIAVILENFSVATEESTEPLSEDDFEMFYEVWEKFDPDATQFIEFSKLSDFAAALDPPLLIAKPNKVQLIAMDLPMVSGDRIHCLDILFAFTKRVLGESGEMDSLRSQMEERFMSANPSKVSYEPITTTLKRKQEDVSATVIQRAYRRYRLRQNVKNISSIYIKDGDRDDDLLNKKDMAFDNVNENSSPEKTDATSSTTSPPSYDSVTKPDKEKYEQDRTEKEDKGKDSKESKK
Method: Ionworks Barracuda (IWB) Automated Patch Clamp Assay (Same Protocol for Both Hu Man and Mouse)
Human NaV1.7 currents were recorded in population patch-clamp mode with the IWB automated electrophysiology system (Molecular Devices, LLC, Sunnyvale, Calif.). Spiking HEK cells (without Kir2.1 transfection) were cultured and prepared for recordings as previously described for IonWorks Quattro testing^1. The external solution consisted of the following (in mM): NaCl 140, KCl 5, CaCl2 2, MgCl2 1, HEPES 10, and glucose 11, pH 7.4, with N-methyl-D-glucamine at 320 mOsmol. […] From a holding potential of −110 mV, currents were elicited by a train of 26 depolarizations of 150 ms duration to −20 mV at a frequency of 5 Hz. Cells were then clamped to −20 mV for a period of 4 minutes in the presence of a single concentration of test compound. Following this compound incubation period, cells were clamped to −110 mV for three seconds to recover unbound channels and put through the same 26 pulse voltage protocol as above. Peak inward current during the 26th pulse to −20 mV in the presence of compound was divided by the peak inward current evoked by the 26th pulse to −20 mV in the absence of compound to determine percent inhibition. Concentration-response curves of percent inhibition as a function of concentration were generated to calculate IC50 values as described in Kornecook, T. J.; Yin, R.; Altmann, S.; et al. Pharmacologic Characterization of AMG8379, a Potent and Selective Small Molecule Sulfonamide Antagonist of the Voltage-Gated Sodium Channel NaV1. 7.
The potency of the compounds of the present invention were evaluated on human NaV1.7 channels using the above described IonWorks Barracuda automated electrophysiology platform that evaluates the ability of compounds to block sodium conductance through NaV1.7 channels. A voltage-protocol that prosecutes both state-dependent as well as use-dependent inhibition was used as these modes of action are thought to be more relevant for the native state of NaV1.7 channels in pain sensing neurons in vivo.

[2] = test system: CYP3A4; experiment: Human CYP 3A4 induction assay (mRNA, cryopreserved human hepatocytes); format: in vitro ADME
Method: Human CYP 3A4 Induction Assay
Cryopreserved human hepatocytes were seeded in 96-well collagen coated plates at 70,000 cells per well in hepatocyte plating media (HPM, final concentrations: 1× Dulbecco's Modified Eagle's Medium, 0.1 μM dexamethasone, 10% fetal bovine serum, 1× ITS, 1×PSG) followed by incubation at 37° C. under 5% CO2 and 90% relative humidity for 2 days to allow hepatocytes to form a confluent layer. On Day 3, hepatocytes were treated with either test compound or rifampin (20 μM, positive control for CYP3A induction) prepared in hepatocyte incubation media ((HIM, final concentrations: 1× William's Medium E, 0.1 μM dexamethasone, 1×ITS, 1×PSG). Treatment was performed for 72 hours with either 2 concentrations (2 μM or 10 μM) or a range of concentrations (0.001 μM to 100 μM) of the test compound to obtain full dose-response curve. Fresh media containing the relevant concentrations of the test compound was replaced every day until the samples were processed. After 72 hours of incubation, samples were processed for mRNA analysis using bDNA technology using manufacturer's instructions (Affymetrix, Fremont, Calif.). Cell viability was tested at the end of the experiment using MTT assay kit (Roche Diagnostics, Basel, Switzerland). Data was analyzed and presented as percent of control (POC) and Emax and EC50 obtained when appropriate according to guidance from Center for Drug Evaluation and Research (CDER), 2006, Guidance for Industry, Drug Interaction Studies—Study Design, Data Analysis, and Implications for Dosing and Labeling.
Cryopreserved human hepatocytes were seeded in 96-well collagen coated plates at 70,000 cells per well in hepatocyte plating media (HPM, final concentrations: 1× Dulbecco's Modified Eagle's Medium, 0.1 μM dexamethasone, 10% fetal bovine serum, 1×ITS, 1×PSG) followed by incubation at 37° C. under 5% CO2 and 90% relative humidity for 2 days to allow hepatocytes to form a confluent layer. On Day 3, hepatocytes were treated with either test compound or rifampin (20 μM, positive control for CYP3A induction) prepared in hepatocyte incubation media ((HIM, final concentrations: 1× William's Medium E, 0.1 μM dexamethasone, 1×ITS, 1×PSG). Treatment was performed for 72 hours with either 2 concentrations (2 μM or 10 μM) or a range of concentrations (0.001 μM to 100 μM) of the test compound to obtain full dose-response curve. Fresh media containing the relevant concentrations of the test compound was replaced every day until the samples were processed. After 72 hours of incubation, samples were processed for mRNA analysis using bDNA technology using manufacturer's instructions (Affymetrix, Fremont, Calif.). Cell viability was tested at the end of the experiment using MTT assay kit (Roche Diagnostics, Basel, Switzerland). Data was analyzed and presented as percent of control (POC) and Emax and EC50 obtained when appropriate, as described in Halladay, J. et al, 2012, An “all-inclusive” 96-well cytochrome P450 induction method: Measuring enzyme activity, mRNA levels, protein levels, and cytotoxicity from one well using cryopreserved human hepatocytes, Pharmacological and Toxicological Methods, 66:270-275.
The cytochrome P450 (CYP) is a well-known superfamily of enzymes that are responsible for the oxidative and reductive metabolic transformation of medications used in clinical practice. In addition, the CYP enzymes are commonly associated with causing many clinically relevant drug-drug interactions. Of the CYP enzymes, CYP3A4 is not only the most prevalent CYP enzyme in the liver and intestine, but is responsible for metabolism and elimination of approximately 50% of marketed drugs. In addition, CYP3A4 activity can be induced (or increased) or inhibited (decreased) in response to administration of certain drugs, thereby affecting concentrations of their own or certain concomitant drugs present in the body. […]

[3] = human hepatocytes, 10 uM test compound, 72 hours, mRNA, percent of control (rifampin positive control)

IC50 [1] [nM]	CYP3A4 mRNA Induct Hu 10 uM POC [2, 3] [%]	CYP3A4 mRNA Induct Hu 10 uM POC ([2]; hepatocytes) [%]	Structure (SMILES)
19	46.59		COc1cc([C@@H]2C[C@H]2C(F)(F)F)c(Cl)cc1-n1c(=O)ccc2cc(S(=O)(=O)Nc3cccnn3)ccc21 (atropisomer, axis not shown; (P)) [Example 14, (P)-1-(5-chloro-2-methoxy-4-((1R,2R)-2-(trifluoromethyl)cyclopropyl)phenyl)-2-oxo-N-(pyridazin-3-yl)-1,2-dihydroquinoline-6-sulfonamide]
19	35.39		COc1cc([C@@H]2C[C@H]2C(F)(F)F)c(C)cc1-n1c(=O)ccc2cc(S(=O)(=O)Nc3ccon3)ccc21 (atropisomer, axis not shown; (P)) [Example 26, (P)-N-(isoxazol-3-yl)-1-(2-methoxy-5-methyl-4-((1R,2R)-2-(trifluoromethyl)cyclopropyl)phenyl)-2-oxo-1,2-dihydroquinoline-6-sulfonamide]
26		60.34	COc1cc([C@H]2C[C@H]2C2CC2)c(F)cc1-n1c(=O)ccc2cc(S(=O)(=O)Nc3ccon3)ccc21 (atropisomer, axis not shown; (P)) [Example 30, (P)-1-(4-((1S,2S)-[1,1′-bi(cyclopropan)]-2-yl)-5-fluoro-2-methoxyphenyl)-N-(isoxazol-3-yl)-2-oxo-1,2-dihydroquinoline-6-sulfonamide]
4	139.9		COc1cc([C@H]2C[C@@H]2COC(F)(F)F)c(F)cc1-n1c(=O)ccc2cc(S(=O)(=O)Nc3ccon3)ccc21 (atropisomer, axis not shown; (P)) [Example 33, (P)-1-(5-fluoro-2-methoxy-4-((1S,2S)-2-((trifluoromethoxy)methyl)cyclopropyl)phenyl)-N-(isoxazol-3-yl)-2-oxo-1,2-dihydroquinoline-6-sulfonamide]
8	24.57		COc1cc([C@@H]2C[C@H]2C(F)(F)F)c(F)cc1-n1c(=O)ccc2cc(S(=O)(=O)Nc3ccon3)c(F)cc21 (single isomer, unassigned) [Example 45]

Structure (SMILES)	IC50 [1] [nM]	CYP3A4 mRNA Induct Hu 10 uM POC [2, 3] [%]	CYP3A4 mRNA Induct Hu 10 uM POC ([2]; hepatocytes) [%]
COc1cc([C@@H]2C[C@H]2COC(F)(F)F)c(F)cc1-n1c(=O)ccc2cc(S(=O)(=O)Nc3ccon3)ccc21 (atropisomer, axis not shown; (P)) [Example 32, (P)-1-(5-fluoro-2-methoxy-4-((1R,2R)-2-((trifluoromethoxy)methyl)cyclopropyl)phenyl)-N-(isoxazol-3-yl)-2-oxo-1,2-dihydroquinoline-6-sulfonamide]	9	64.54	
COc1cc([C@@H]2C[C@H]2C(F)(F)F)c(F)cc1-n1c(=O)ccc2cc(S(=O)(=O)Nc3nncs3)ccc21 (atropisomer, axis not shown; (P)) [Example 40, (P)-1-(5-fluoro-2-methoxy-4-((1R,2R)-2-(trifluoromethyl)cyclopropyl)phenyl)-2-oxo-N-(1,3,4-thiadiazol-2-yl)-1,2-dihydroquinoline-6-sulfonamide]	8		
